Source: publication PMC11921146, “Heterologous production of corosolic acid, a phyto-insulin, in agroinfiltrated Nicotiana benthamiana leaves” (Plant Biotechnology, 2024)

What was measured:
Assay in all cases: transient co-expression in N. benthamiana leaves, GC-MS of leaf extracts
Format in all cases: cell-based
Settings in all cases: alpha-amyrin formed in situ by BfOSC3; co-expressed AtHMGR1cd-S577A and LjCPR2; C-28 oxidation
OeCYP716A48 = molecular target: T1, OeCYP716A48 (Olea europaea, UniProt A0A090AQE0)
T1 construct: gene CYP716A48; full-length; transient expression in N. benthamiana leaves (pBYR2HS)
T1 sequence (A0A090AQE0 entry or part of it): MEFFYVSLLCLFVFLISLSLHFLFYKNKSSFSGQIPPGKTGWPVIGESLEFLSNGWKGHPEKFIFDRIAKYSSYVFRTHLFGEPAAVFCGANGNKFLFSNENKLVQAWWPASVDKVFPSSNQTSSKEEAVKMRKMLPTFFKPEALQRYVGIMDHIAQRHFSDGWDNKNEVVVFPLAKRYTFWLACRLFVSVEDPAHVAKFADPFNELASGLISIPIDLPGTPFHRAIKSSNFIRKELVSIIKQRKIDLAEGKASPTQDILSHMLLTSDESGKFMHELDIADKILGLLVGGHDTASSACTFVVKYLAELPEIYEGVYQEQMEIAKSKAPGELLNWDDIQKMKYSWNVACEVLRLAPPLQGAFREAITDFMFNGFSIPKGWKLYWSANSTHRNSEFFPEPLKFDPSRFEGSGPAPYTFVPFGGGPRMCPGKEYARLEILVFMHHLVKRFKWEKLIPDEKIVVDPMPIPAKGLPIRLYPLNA

MtCYP716A12 [1] = molecular target: T2, MtCYP716A12 (Medicago truncatula, UniProt Q2MJ20, D122Q/Q358P)
T2 construct: gene CYP716A12; full-length; transient expression in N. benthamiana leaves (pBYR2HS)
T2 sequence (Q2MJ20 whole entry D122Q/Q358P, the tested form may be a part): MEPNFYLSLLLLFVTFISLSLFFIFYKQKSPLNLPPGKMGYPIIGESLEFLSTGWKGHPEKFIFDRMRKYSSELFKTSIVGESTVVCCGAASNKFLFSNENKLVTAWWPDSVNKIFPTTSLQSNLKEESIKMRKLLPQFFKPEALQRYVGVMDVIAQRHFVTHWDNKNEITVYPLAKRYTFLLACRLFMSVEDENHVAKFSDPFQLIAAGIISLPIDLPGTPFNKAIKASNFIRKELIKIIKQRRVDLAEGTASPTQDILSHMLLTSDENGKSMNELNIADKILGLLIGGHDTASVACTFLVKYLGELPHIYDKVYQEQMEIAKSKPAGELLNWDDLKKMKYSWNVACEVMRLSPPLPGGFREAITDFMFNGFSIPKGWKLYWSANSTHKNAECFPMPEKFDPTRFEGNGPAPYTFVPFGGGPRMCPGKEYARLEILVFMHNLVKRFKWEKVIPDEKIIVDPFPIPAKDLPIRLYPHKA

MtCYP716A12 [2] = molecular target: T3, MtCYP716A12 (Medicago truncatula, UniProt Q2MJ20)
T3 construct: gene CYP716A12; full-length; transient expression in N. benthamiana leaves (pBYR2HS)
T3 sequence (Q2MJ20 whole entry, the tested form may be a part): as the sequence (Q2MJ20 whole entry D122Q/Q358P, the tested form may be a part) above, with Q122D, P358Q counted along it

MtCYP716A12 [3] = molecular target: T4, MtCYP716A12 (Medicago truncatula, UniProt Q2MJ20, D122Q)
T4 construct: gene CYP716A12; full-length; transient expression in N. benthamiana leaves (pBYR2HS)
T4 sequence (Q2MJ20 whole entry D122Q, the tested form may be a part): as the sequence (Q2MJ20 whole entry D122Q/Q358P, the tested form may be a part) above, with P358Q counted along it

Compound: C[C@H]1[C@H](C)CC[C@]2(C)CC[C@]3(C)C(=CC[C@@H]4[C@@]5(C)CC[C@H](O)C(C)(C)[C@@H]5CC[C@]43C)[C@H]12 [compound 1, α-amyrin]
- transient co-expression in N. benthamiana leaves, GC-MS of leaf extracts (OeCYP716A48): each of the candidate CYP716As were mixed and infiltrated into N. benthamiana leaves
- transient co-expression in N. benthamiana leaves, GC-MS of leaf extracts (MtCYP716A12 [1]): each of the candidate CYP716As were mixed and infiltrated into N. benthamiana leaves
- transient co-expression in N. benthamiana leaves, GC-MS of leaf extracts (MtCYP716A12 [2]): detected in the leaves expressing wild-type MtCYP716A12
- transient co-expression in N. benthamiana leaves, GC-MS of leaf extracts (MtCYP716A12 [3]): each of the candidate CYP716As were mixed and infiltrated into N. benthamiana leaves
